From patent US5208220A, “Composition and treatment with biologically active peptides and antibiotics which inhibit DNA gyrase” (priority 1991, dated 1993)
Where no end group is shown, it is not given here.

Key:
Type in all cases: cell-based
Conditions in all cases: compound alone
[1] = tested on: isolates of strain MR-PSA (multiply resistant) Pseudomonas aeruginosa; experiment: MIC in microtiter plates, Mueller-Hinton broth (Examples 2 and 3)
Protocol: For Examples 2 and 4, microorganisms employed in the assays were grown according to the procedure described in Stutman, et al., Antimicrobial Agents in Chemotherapy, Vol. 34, July 1990.
The final assays were then conducted in microtiter plates containing Mueller-Hinton broth 10^5 organisms were added to each well.
The minimal inhibitory concentrations, (MIC's), according to the procedure of Example 2, were tested against various isolates of strain MR-PSA, of Pseudomonas aeruginosa, except that Peptide 4 replaces Peptide 1.

[2] = tested on: P.aeruginosa strain 107 (which is gentamicin - resistant); experiment: MIC in trypticase soy broth, test wells (Example 1)
Protocol: (§1) Approximately 1-5×10^5 colony forming units (CFU's) of P.aeruginosa strain 27853 or of P.aeruginosa strain 107 (which is gentamicin - resistant) dispersed in 100 ul of trypticase soy broth (TSB) were added to each of a series of test wells. […] For purposes of this example, Peptide 1 is amide-terminated Magainin II, Peptide 2 is of the following structural formula: […]

[3] = tested on: P.aeruginosa strain 27853; experiment: as above
Protocol: as §1

Question: What does the source list for GIGKFLHSAKKFGKAFVGEIMNS-NH2 [Peptide 1]?
Answer: MIC ([1]; Table 2, MR-PSA isolate 1): 32 µg/mL; MIC ([1]; Table 2, MR-PSA isolate 2): > 256 µg/mL; MIC ([1]; Table 2, MR-PSA isolate 3): 32 µg/mL; MIC ([1]; Table 2, MR-PSA isolate 4): 256 µg/mL; MIC [2]: > 32 µg/mL; MIC [3]: > 32 µg/mL
